We go through nine compounds from patent US4713457A, “Ergoline derivatives and acid addition salts thereof” (priority 1985, dated 1987).

Data set [1] concerns ddY male mice, reserpine-induced immobility. As to the kind of experiment: Activity on reserpine-induced immobility (open-field method). As to conditions: reserpine 2 mg/kg, total of 1-min counts at 15, 30, 45, 60 min, ***p < 0.001. The class given is in vivo, mouse. As to the method: Reserpine was administered intraperitoneally to ddY male mice (4 week old) at a dose of 2 mg/kg, and, after 18 to 20 hours, the test compound was administered intraperitoneally to the mice. Thereafter, the ambulation (the number of times of the animal crossed the demarcation line) of the mice was counted for a period of 1 minute at 15, 30, 45 and 60 minutes after the administration of the test compound, respectively, according to the open-field method. The total number of ambulation determined at 4 times in each mouse and compared with that of the control.

Data set [2] has as its system Rats with unilateral 6-hydroxydopamine lesion of the substantia nigra. As to the kind of experiment: Rotational activity in rats with unilateral 6-hydroxydopamine lesion of the substantia nigra. It is filed as in vivo, rat. As to the method:
Rats under pentobarbital sodium anesthesia (50 mg/kg, i.p.) were fixed on an apparatus for fixing brain, and 6-hydroxydopamine (8 μg/4 μl) was injected in the substantia nigra (A:3.0, L:2.6, D:7.8) according to Pellegrino & Cushman's atlas. Seven days after the injection of 6-hydroxydopamine, apomorphine was administered subcutaneously at a dose of 0.25 mg/kg, and the rats showing […] rotating movement to one side opposite to the destroyed side were selected. After 7 days, the test compound was administered intraperitoneally and, thereafter, rotating movement of the rats was observed over 1 minute at an interval of 5 minutes during a period of 60 minutes.

The conditions of data set [3]: J. Affect. Disord., Vol. 1, 173 (1979); cited from earlier work.
The test system of data set [4] is Donryu male rats, indomethacin ulcer. As to the kind of experiment: Anti-ulcer activity, indomethacin-induced ulcer. It is filed as in vivo, rat. As to conditions: for Ulcer Index Inhibition / Ulcer Index: indomethacin 25 mg/kg; for Anti-ulcer activity (in words): Table 4. As to the method: The test compound was administered orally to Donryu male rats weighing 240 to 300 g (7 rats per group) which have been fasting for 24 hours before testing, and, after 30 minutes, indomethacin was administered orally to the rats at a dose of 25 mg/kg. The rats were then maintained for 7 hours without feeding water and foods and then sacrificed. The stomach was extracted and fixed by infusing 7.5 ml of a 2% formalin solution into the stomach. The stomach was incised along the greater curvature thereof, and length (mm) of each ulcer generated in gastric glands was determined. The total length of the ulcer per rat was expressed in terms of an ulcer index.
In this experiment, the test compound was suspended in a 0.5% aqueous gum arabic and administered at a volume of 5 ml/kg. Indomethacin (manufacturedby Sigma Co., Ltd.) was administered as a 0.5 wt% aqueous suspension in sodium carboxymethyl cellulose at a volume of 5 ml/kg. As a control, a 0.5 wt% suspension of aqueous gum arabic was orally administered at a volume of 5 ml/kg.

The subject of data set [5] is Rats, pylorus portion ligated (gastric secretion). As to the kind of experiment: Gastric secretion inhibitory activity in pylorus-ligated rats. It is filed as in vivo, rat. The method, then:
Rats weighing 200 to 250 g (8 rats per group) which have been fasting for 24 hours before testing were subjected to abdominal section under ether anesthesia, and the pylorus portion was ligated. Immediately after ligation, the test compound was administered into the duodenum as a suspension in a 5 wt% aqueous gum arabic at a volume of 2 ml/kg. The rats were sacrificed after 6 hours, and the stomach was extracted. The gastric juice was collected to determine the volume thereof, and the acidity of the gastic juice was titrated to a pH 7.0 with a 0.02N aqueous sodium hydroxide solution using a pH meter. The acid secretion amount per 6 hours (μEq/6 h) was calculated by (volume of gastric juice×acidity of gastric juice).

Data set [6] relates to unanesthetized spontaneously hypertensive rats. As to the kind of experiment: Anti-hypertensive activity, systolic blood pressure, tail cuff method. The class given is in vivo, rat. The conditions noted are these: 10 mg/kg oral. The method, then: (§1) The anti-hypertensive activity of the compounds was determined by the tail cuff method using unanesthetized spontaneously hypertensive rats weighing 300 to 350 g (21 to 25 week old). In this experiment, the systolic blood pressure was determined by the bloodless method using a hemodynamometer. The heart rate was determined simultaneously using a sphygmometer connected to the pulse output. After rats were placed under condition of 40° C. for 10 minutes, the blood pressure was determined by holding the rats in a holder. The test compounds were suspended in a 0.5 wt% aqueous gum arabic. Hydralazine hydrochloride used as a comparative agent was administered as an aqueous solution thereof. The volume of oral administration was 0.5 ml per 100 g of body weight.

Data set [7] has the same test system. In words: Heart rate determined simultaneously with blood pressure (sphygmometer connected to the pulse output). It is filed as in vivo, rat. As to conditions: for Changes in Heart Rate: 10 mg/kg oral. As to the method: as §1
The subject of data set [8] is ddY male mice, KCN-induced anoxia. In words: Activity on KCN-induced anoxia in mice. It is filed as in vivo, mouse. As to conditions: for Survival Time / Number of Survived Mice/Total Mice: 10 mg/kg i.p., KCN 2.5 mg/kg i.v.; for Survival Time: **p < 0.01, ***p < 0.001, survivors counted as 180 sec; for Number of Survived Mice/Total Mice: survived longer than 3 minutes.

Data set [9] deals with human. As to conditions: in human, side-effect; cited from earlier work.
Setting [10] is: 100 mg/kg into the duodenum, 6 hours.
Where [11] appears, read: 10 mg/kg into the duodenum, 6 hours.
The mark [12] stands for this setting: 10 mg/kg into the duodenum, 6 hours, *p < 0.05.

Counter-ions that a name gives are not always drawn.

In data set [1] (3 mg/kg i.p., n = 10), `CN1CCc2cccc3c2[C@H]1Cc1ccc(O)c(O)c1-3` [Apomorphine Hydrochloride, reference compound] returned an Ambulation of 71.0 ± 7.0. In addition, the “Number of Rotating Movement over 60 min.” value in data set [2] (0.5 mg/kg i.p.) was 147.
As for `CC(C)C[C@H]1C(=O)N2CCC[C@H]2[C@]2(O)O[C@](NC(=O)[C@@H]3C=C4c5cccc6[nH]c(Br)c(c56)C[C@H]4N(C)C3)(C(C)C)C(=O)N12` [Bromocriptine Methanesulfonate], the Ambulation in [1] (10 mg/kg i.p., n = 6) is 36.7 ± 12.3. In data set [3], the “Anti-depressive activity (known)” value is recorded as “has been known to have an anti-depressive activity”.
For `NC[C@H]1CC[C@H](C(=O)Oc2ccc(CCC(=O)O)cc2)CC1` [Cetraxate, p-hydroxyhydrocinnamic acid trans-(4-aminomethyl)cyclohexane carboxylate], in data set [4] (100 mg/kg oral), the “Ulcer Index Inhibition” value came out at 14.9%. Moreover, in data set [4] (100 mg/kg oral, **p < 0.01), the “Ulcer Index” value is 52.1 ± 8.7 mm. For the same compound, the “Anti-ulcer activity (in words)” value in data set [4] was “did not show any significant anti-ulcer activity”.
Take `CN=C(NC#N)NCCSCc1nc[nH]c1C` [Cimetidine, 1-cyano-2-methyl-3-[2-[[(5-methylimidazole-4-yl)methyl]thio]ethyl]guanidine, reference compound]: the “Volume of Acid Secreted” value in data set [5] (100 mg/kg into the duodenum) is on record as 142.5 ± 60.5 μEq/6 h. Moreover, in data set [5] (setting [10]), the “Volume of Acid Secreted, Inhibition” value is 66.2% and the “Volume of Gastric Juice, Inhibition” value worked out at 60.2%. In addition, the “Ulcer Index Inhibition” value in data set [4] (100 mg/kg oral) was 53.7%. Moreover, the “Ulcer Index” value in [4] (100 mg/kg oral, **p < 0.01) was 28.3 ± 8.4 mm.
With `CN1C[C@H](CN2CCOC2=O)C[C@@H]2c3cccc4[nH]cc(c34)C[C@H]21` [Example 2, 3-(6-Methylergolin-8β-ylmethyl)oxazolidin-2-one], the “Changes in Systolic Blood Pressure” value in [6] (1 hr after administration) is -64 Δ mmHg; in data set [6] (2 hrs after administration), -36 Δ mmHg; in data set [6] (4 hrs after administration) it was -37 Δ mmHg; in data set [6] (6 hrs after administration), -52 Δ mmHg; in data set [6] (24 hrs after administration), -11 Δ mmHg. Further, the “Changes in Heart Rate” value is listed as -39 Δ/min in data set [7] (1 hr after administration); -74 Δ/min in data set [7] (2 hrs after administration); -58 Δ/min in data set [7] (4 hrs after administration); -56 Δ/min in data set [7] (6 hrs after administration); -23 Δ/min in [7] (24 hrs after administration). Besides, in data set [5] (setting [11]), the “Volume of Acid Secreted, Inhibition” value came to 70.8%. In addition, in data set [5] (setting [11]), the “Volume of Gastric Juice, Inhibition” value turned out to be 63.3%. The “Total Acidity” value in data set [5] (setting [12]) was found to be 61.4 ± 7.5 mEq/liter. For the same compound, in [4] (10 mg/kg oral), the “Ulcer Index Inhibition” value was 92.7%. For the same compound, in data set [4] (10 mg/kg oral, ***p < 0.001), the “Ulcer Index” value was 4.4 ± 2.3 mm. In data set [8], the “Survival Time” value came to 144.4 ± 17.6 s. The “Number of Survived Mice/Total Mice” value in data set [8] is 5/8. The “Brain protection activity (in words)” value in data set [8] (Table 5) is given as “exhibited the activity higher that that of dihydroergotoxine methanesulfonate”.
Take `CN1CC(=O)N(C[C@@H]2C[C@@H]3c4cccc5[nH]cc(c45)C[C@H]3N(C)C2)C1=O` [Example 3, 1-Methyl-3-(6-methylergolin-8β-ylmethyl)imidazolidin-2,4-dione]: the “Changes in Systolic Blood Pressure” value is -57 Δ mmHg in data set [6] (1 hr after administration); -66 Δ mmHg in data set [6] (2 hrs after administration); -31 Δ mmHg in data set [6] (4 hrs after administration); -27 Δ mmHg in data set [6] (6 hrs after administration); -4 Δ mmHg in [6] (24 hrs after administration). For the same compound, the “Changes in Heart Rate” value in [7] (1 hr after administration) is 26 Δ/min; in [7] (2 hrs after administration) it was 1 Δ/min; in data set [7] (4 hrs after administration) it was 2 Δ/min; in data set [7] (6 hrs after administration) it was -4 Δ/min; in [7] (24 hrs after administration), 1 Δ/min. Further, the “Volume of Acid Secreted, Inhibition” value in data set [5] (setting [11]) came out at 52.9%. Further, in [5] (setting [11]), the “Volume of Gastric Juice, Inhibition” value is 48.4%. Also, in [5] (setting [12]), the “Total Acidity” value came to 70.0 ± 5.3 mEq/liter. In addition, the “pH of gastric juice” value in [5] (setting [12]) was determined as 2.07 ± 0.22. Moreover, the “Acid output per 6 h” value in data set [5] (10 mg/kg into the duodenum, *p < 0.05) was 198.7 ± 34.3 μEq/6 h. Also, in data set [8], the “Survival Time” value was 101.6 ± 17.8 s. Also, in data set [8], the “Number of Survived Mice/Total Mice” value was 2/8.
With `CN1C[C@H](Cn2cncn2)C[C@@H]2c3cccc4[nH]cc(c34)C[C@H]21` [Example 6, 1-(6-Methylergolin-8β-ylmethyl)-1,2,4-triazole], the “Changes in Systolic Blood Pressure” value in data set [6] (1 hr after administration) is reported as -64 Δ mmHg; in data set [6] (2 hrs after administration), -67 Δ mmHg; in data set [6] (4 hrs after administration), -62 Δ mmHg; in [6] (6 hrs after administration), -65 Δ mmHg; in data set [6] (24 hrs after administration), -14 Δ mmHg. In addition, the “Changes in Heart Rate” value in data set [7] (1 hr after administration) is given as -8 Δ/min; in data set [7] (2 hrs after administration), -30 Δ/min; in data set [7] (4 hrs after administration), -33 Δ/min; in data set [7] (6 hrs after administration) it was -21 Δ/min; in data set [7] (24 hrs after administration) it was -10 Δ/min. Further, the Ambulation in data set [1] (10 mg/kg i.p., n = 6) is recorded as 198.8 ± 32.2. In data set [2] (10 mg/kg i.p.), the “Duration of increase in spontaneous movement and sniffing” value is on record as “more than 5 hours”. Further, in data set [2] (10 mg/kg i.p.), the “Number of Rotating Movement over 60 min.” value stood at 0. For the same compound, in data set [2] (10 mg/kg i.p.), the “Spontaneous movement and sniffing” value was “Increase in spontaneous movement and sniffing occurred markedly”.
Consider `NNc1nncc2ccccc12` [Hydralazine Hydrochloride, reference compound], for which the “Changes in Systolic Blood Pressure” value is -47 Δ mmHg in data set [6] (1 hr after administration); -52 Δ mmHg in data set [6] (2 hrs after administration); -67 Δ mmHg in [6] (4 hrs after administration); -41 Δ mmHg in [6] (6 hrs after administration); -22 Δ mmHg in data set [6] (24 hrs after administration). Moreover, the “Changes in Heart Rate” value was 65 Δ/min in data set [7] (1 hr after administration); 66 Δ/min in data set [7] (2 hrs after administration); 75 Δ/min in data set [7] (4 hrs after administration); 64 Δ/min in [7] (6 hrs after administration); 44 Δ/min in data set [7] (24 hrs after administration). Also, in [7] (Table 2), the “Heart rate effect (in words)” value is listed as “a marked increase in heart rate”. Moreover, in data set [9], the Tachycardia entry was “exhibited tachycardia in human as one of side-effects”.
For the compound `CC(C)=CCOc1ccc(/C=C/C(=O)c2ccc(OCC=C(C)C)cc2OCC(=O)O)cc1` [Sofalcone], in [4] (100 mg/kg oral), the “Ulcer Index Inhibition” value is 3.4%. The “Ulcer Index” value in data set [4] (100 mg/kg oral, **p < 0.01) is recorded as 59.2 ± 10.5 mm. The “Anti-ulcer activity (in words)” value in data set [4] was “did not show any significant anti-ulcer activity”.
